Source: the supplement of paper PMC6045584
± gives the standard deviation of the averaged measurements.

How the values were obtained:
CANERTINIB [1] = compound: T1, C=CC(=O)Nc1cc2c(Nc3ccc(F)c(Cl)c3)ncnc2cc1OCCCN1CCOCC1 [CANERTINIB]; experiment: surviving fraction relative to DMSO-only wells; higher = less growth inhibition; settings: exposure time: 5 days
In short: (§1)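 A line counted only if its three screens reached replicate Pearson r >0.7 and median Z' >0.3. Tumour cells in log phase were seeded at 250–500 per well in 384-well plates and, after 24 hours, kept in continuous contact with inhibitors at 0.5, 1, 5, 10, 50, 100, 500 and 1000 nM for five days. Surviving fraction was taken from CellTiter-Glo luminescence relative to the median of DMSO-only wells.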

SNX-5422 [2] = compound: T2, CC1(C)CC(=O)c2c(C(F)(F)F)nn(-c3ccc(C(N)=O)c(N[C@H]4CC[C@H](OC(=O)CN)CC4)c3)c2C1 [SNX-5422]; experiment: as above; settings: exposure time: 5 days
In short: as §1

SAPACITABINE [3] = compound: T3, CCCCCCCCCCCCCCCC(=O)Nc1ccn([C@@H]2O[C@H](CO)[C@@H](O)[C@@H]2C#N)c(=O)n1 [SAPACITABINE]; experiment: as above; settings: exposure time: 5 days
In short: as §1

BI-2536 [4] = compound: T4, CC[C@@H]1C(=O)N(C)c2cnc(Nc3ccc(C(=O)NC4CCN(C)CC4)cc3OC)nc2N1C1CCCC1 [BI-2536]; experiment: as above; settings: exposure time: 5 days
In short: as §1

AFATINIB [5] = compound: T5, CN(C)C/C=C/C(=O)Nc1cc2c(Nc3ccc(F)c(Cl)c3)ncnc2cc1O[C@H]1CCOC1 [AFATINIB]; experiment: as above; settings: exposure time: 5 days
In short: as §1

MDV3100 [6] = compound: T6, CNC(=O)c1ccc(N2C(=S)N(c3ccc(C#N)c(C(F)(F)F)c3)C(=O)C2(C)C)cc1F [MDV3100]; experiment: as above; settings: exposure time: 5 days
In short: as §1

[7] = compound: Cn1cc(C2=Nc3cc(NC(=O)C(N)C4CCCCC4)cc4c3C2=CNNC4=O)cn1; experiment: as above; settings: exposure time: 5 days
In short: as §1

TIOGUANINE [8] = compound: T7, Nc1nc2[nH]cnc2c(=S)[nH]1 [TIOGUANINE]; experiment: as above; settings: exposure time: 5 days
In short: as §1

CANERTINIB [9] = compound: T1, CANERTINIB; experiment: area under dose-response curve of surviving fraction (unscaled, Aref=0) (surviving fraction x log10(nM)); higher = more resistant; settings: exposure time: 5 days; dose range 0.5-1000 nM
In short: (§2)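 Tumour cell lines in 384-well plates were exposed for five days to eight inhibitor concentrations from 0.5 to 1000 nM. Viability was read by CellTiter-Glo luminescence, normalised to DMSO-only wells, in three screens per line. Dose-response survival curves were fitted to surviving fractions by 3-parameter logistic regression in the drc R package. Area under the curve is the unscaled activity area (Aref = 0) over log10 dose.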

SNX-5422 [10] = compound: T2, SNX-5422; experiment: as above; settings: exposure time: 5 days; dose range 0.5-1000 nM
In short: as §2

SAPACITABINE [11] = compound: T3, SAPACITABINE; experiment: as above; settings: exposure time: 5 days; dose range 0.5-1000 nM
In short: as §2

BI-2536 [12] = compound: T4, BI-2536; experiment: as above; settings: exposure time: 5 days; dose range 0.5-1000 nM
In short: as §2

AFATINIB [13] = compound: T5, AFATINIB; experiment: as above; settings: exposure time: 5 days; dose range 0.5-1000 nM
In short: as §2

MDV3100 [14] = compound: T6, MDV3100; experiment: as above; settings: exposure time: 5 days; dose range 0.5-1000 nM
In short: as §2

[15] = compound: Cn1cc(C2=Nc3cc(NC(=O)C(N)C4CCCCC4)cc4c3C2=CNNC4=O)cn1; experiment: as above; settings: exposure time: 5 days; dose range 0.5-1000 nM
In short: as §2

TIOGUANINE [16] = compound: T7, TIOGUANINE; experiment: as above; settings: exposure time: 5 days; dose range 0.5-1000 nM
In short: as §2

Test System SAOS2 BONE has a surviving fraction (CANERTINIB [1]; 0.5 nM) of 0.853 ± 0.028, a surviving fraction (CANERTINIB [1]; 1 nM) of 0.85 ± 0.042 and a surviving fraction (CANERTINIB [1]; 5 nM) of 0.877 ± 0.06. It also gave a surviving fraction (CANERTINIB [1]; 10 nM) of 0.818 ± 0.015, a surviving fraction (CANERTINIB [1]; 50 nM) of 1.02 ± 0.038 and a surviving fraction (CANERTINIB [1]; 100 nM) of 1.04 ± 0.12. The surviving fraction (CANERTINIB [1]; 500 nM) was 0.815 ± 0.026, the surviving fraction (CANERTINIB [1]; 1000 nM) was 0.703 ± 0.063 and the surviving fraction (SNX-5422 [2]; 0.5 nM) was 1.15 ± 0.034. The surviving fraction (SNX-5422 [2]; 1 nM) was 1.14 ± 0.075, the surviving fraction (SNX-5422 [2]; 5 nM) was 1.16 ± 0.029 and the surviving fraction (SNX-5422 [2]; 10 nM) was 1.15 ± 0.027. It also gave a surviving fraction (SNX-5422 [2]; 50 nM) of 0.123 ± 0.015, a surviving fraction (SNX-5422 [2]; 100 nM) of 0.0737 ± 0.0011 and a surviving fraction (SNX-5422 [2]; 500 nM) of 0.076. It also gave a surviving fraction (SNX-5422 [2]; 1000 nM) of 0.0853 ± 0.0029, a surviving fraction (SAPACITABINE [3]; 0.5 nM) of 0.806 ± 0.032 and a surviving fraction (SAPACITABINE [3]; 1 nM) of 0.811 ± 0.019. It also gave a surviving fraction (SAPACITABINE [3]; 5 nM) of 0.875 ± 0.029, a surviving fraction (SAPACITABINE [3]; 10 nM) of 0.779 ± 0.057 and a surviving fraction (SAPACITABINE [3]; 50 nM) of 0.776 ± 0.013. It also gave a surviving fraction (SAPACITABINE [3]; 100 nM) of 0.566 ± 0.071, a surviving fraction (SAPACITABINE [3]; 500 nM) of 0.199 ± 0.018 and a surviving fraction (SAPACITABINE [3]; 1000 nM) of 0.153 ± 0.017. For the same test system, the surviving fraction (BI-2536 [4]; 0.5 nM) was 1.03 ± 0.036, the surviving fraction (BI-2536 [4]; 1 nM) was 0.875 ± 0.025 and the surviving fraction (BI-2536 [4]; 5 nM) was 0.083 ± 0.0052. It also gave a surviving fraction (BI-2536 [4]; 10 nM) of 0.0753 ± 0.0023, a surviving fraction (BI-2536 [4]; 50 nM) of 0.146 ± 0.0046 and a surviving fraction (BI-2536 [4]; 100 nM) of 0.194 ± 0.015. It also gave a surviving fraction (BI-2536 [4]; 500 nM) of 0.129, a surviving fraction (BI-2536 [4]; 1000 nM) of 0.075 and a surviving fraction (AFATINIB [5]; 0.5 nM) of 1.15 ± 0.11. It also gave a surviving fraction (AFATINIB [5]; 1 nM) of 1.21 ± 0.067, a surviving fraction (AFATINIB [5]; 5 nM) of 1.15 ± 0.018 and a surviving fraction (AFATINIB [5]; 10 nM) of 1.104 ± 0.0087. It also gave a surviving fraction (AFATINIB [5]; 50 nM) of 1.1 ± 0.013, a surviving fraction (AFATINIB [5]; 100 nM) of 1.06 ± 0.089 and a surviving fraction (AFATINIB [5]; 500 nM) of 0.603 ± 0.0052. The surviving fraction (AFATINIB [5]; 1000 nM) was 0.186 ± 0.034, the surviving fraction (MDV3100 [6]; 0.5 nM) was 1.08 ± 0.054 and the surviving fraction (MDV3100 [6]; 1 nM) was 1.07 ± 0.026. For the same test system, the surviving fraction (MDV3100 [6]; 5 nM) was 1.17 ± 0.026, the surviving fraction (MDV3100 [6]; 10 nM) was 1.07 ± 0.031 and the surviving fraction (MDV3100 [6]; 50 nM) was 1.14 ± 0.033. It also gave a surviving fraction (MDV3100 [6]; 100 nM) of 1.14 ± 0.1, a surviving fraction (MDV3100 [6]; 500 nM) of 1.11 ± 0.085 and a surviving fraction (MDV3100 [6]; 1000 nM) of 1.07 ± 0.12. For the same test system, the surviving fraction ([7]; 0.5 nM) was 1.1493 ± 0.00058, the surviving fraction ([7]; 1 nM) was 1.08 ± 0.049 and the surviving fraction ([7]; 5 nM) was 1.073 ± 0.0011. The surviving fraction ([7]; 10 nM) was 1.17 ± 0.077, the surviving fraction ([7]; 50 nM) was 0.882 ± 0.065 and the surviving fraction ([7]; 100 nM) was 0.728 ± 0.03. For the same test system, the surviving fraction ([7]; 500 nM) was 0.113 ± 0.017, the surviving fraction ([7]; 1000 nM) was 0.0473 ± 0.0046 and the surviving fraction (TIOGUANINE [8]; 0.5 nM) was 1 ± 0.024. For the same test system, the surviving fraction (TIOGUANINE [8]; 1 nM) was 0.966 ± 0.031, the surviving fraction (TIOGUANINE [8]; 5 nM) was 1.034 ± 0.0081 and the surviving fraction (TIOGUANINE [8]; 10 nM) was 0.937 ± 0.096. For the same test system, the surviving fraction (TIOGUANINE [8]; 50 nM) was 1.15 ± 0.014, the surviving fraction (TIOGUANINE [8]; 100 nM) was 1.15 ± 0.097 and the surviving fraction (TIOGUANINE [8]; 500 nM) was 1.02 ± 0.027. For the same test system, the surviving fraction (TIOGUANINE [8]; 1000 nM) was 1.01 ± 0.047, the “area under dose-response curve” value (CANERTINIB [9]) was 2.87 and the “area under dose-response curve” value (SNX-5422 [10]) was 1.96. The “area under dose-response curve” value (SAPACITABINE [11]) was 2.19, the “area under dose-response curve” value (BI-2536 [12]) was 0.684 and the “area under dose-response curve” value (AFATINIB [13]) was 3.04. For the same test system, the “area under dose-response curve” value (MDV3100 [14]) was 3.65, the “area under dose-response curve” value [15] was 2.52 and the “area under dose-response curve” value (TIOGUANINE [16]) was 3.44.
